Assay results from PubChem BioAssay (NCI).
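All cell lines were grown in 96-well plates and treated with compound for 48 hours. TGI denotes the concentration required for complete inhibition of growth.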

Legend:
Experiment in all cases: NCI tumour cell line growth inhibition, 48 h
[1] = test system: 786-0 renal
[2] = test system: SK-OV-3 ovarian
[3] = test system: MDA-MB-231 breast
[4] = test system: A549 NSCLC
[5] = test system: HCT-15 colon
[6] = test system: NCI-H23 lung
[7] = test system: EKVX NSCLC
[8] = test system: SK-MEL-5 melanoma
[9] = test system: HT29 colon
[10] = test system: IGROV1 ovarian
[11] = test system: SF-268 CNS
[12] = test system: OVCAR-5 ovarian
[13] = test system: MDA-MB-435
[14] = test system: OVCAR-8 ovarian
[15] = test system: HOP-62 NSCLC
[16] = test system: RXF 393 renal
[17] = test system: A498 renal
[18] = test system: SF-295 CNS
[19] = test system: MOLT-4 leukemia
[20] = test system: SF-539 CNS
[21] = test system: COLO 205 colon
[22] = test system: T-47D breast
[23] = test system: DU-145 prostate
[24] = test system: SN12C renal
[25] = test system: SNB-19 CNS
[26] = test system: MCF7 breast
[27] = test system: OVCAR-3 ovarian
[28] = test system: NCI-H460 lung
[29] = test system: BT-549 breast
[30] = test system: MDA-N
[31] = test system: HL-60(TB) leukemia
[32] = test system: MALME-3M melanoma
[33] = test system: SW-620 colon
[34] = test system: M14 melanoma
[35] = test system: HS 578T breast
[36] = test system: SK-MEL-28 melanoma
[37] = test system: ACHN renal
[38] = test system: K-562 leukemia
[39] = test system: HCT-116 colon
[40] = test system: UACC-257 melanoma
[41] = test system: SR leukemia
[42] = test system: KM12 colon
[43] = test system: NCI-H522 lung
[44] = test system: TK-10 renal
[45] = test system: HCC-2998 colon
[46] = test system: UACC-62 melanoma
[47] = test system: CCRF-CEM leukemia
[48] = test system: CAKI-1 renal
[49] = test system: NCI/ADR-RES ovarian
[50] = test system: UO-31 renal
[51] = test system: SNB-75 CNS
[52] = test system: HOP-92 NSCLC
[53] = test system: RPMI-8226 leukemia
[54] = test system: PC-3 prostate
[55] = test system: LOX IMVI melanoma
[56] = test system: U251 CNS
[57] = test system: SK-MEL-2 melanoma
[58] = test system: NCI-H226 lung
[59] = test system: OVCAR-4 ovarian

Measured: TGI

CCOC(=O)c1nc2cc(C(F)(F)F)ccc2nc1Nc1ccc(OC)c(OC)c1
not listed: [56] | [57] | [58] | [59]
> 100 µM: all other assays above

CC1CC(C)CN(S(=O)(=O)c2cc(Cl)c(Oc3ccc([N+](=O)[O-])cc3Cl)c(Cl)c2)C1 (stereo not drawn)
not listed: [47]
> 100 µM: all other assays above
